Measurements: US11440913B2, “Aminoimidazopyridazines as kinase inhibitors” (BRISTOL-MYERS SQUIBB COMPANY, priority 2017, dated 2022)
Where a name gives a salt, the structure may show the parent alone. Read-outs that look alike come from different tables or passages of the source.

How the values were obtained:
[1] = system: MLKL phosphorylation in HT29-L23 human colorectal adenocarcinoma cells; assay: MLKL Phosphorylation High-Content Assay; format: cell-based; details: necroptosis induced with TNFα, SMAC mimetic and Z-VAD, 6 h, read-out: pMLKL (IC50)
How it was run: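 HT29-L23 cells pretreated 30 min at 37 °C with compound (6.25 to 0.106 μM final), then necroptosis induced with TNFα 35 ng/mL, SMAC mimetic 700 nM and Z-VAD 140 nM for 6 h. Fixed cells immunostained for MLKL pS358 and imaged; IC50 and Ymax from 4-parameter logistic fit.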

[2] = biological target: His-GST-TVMV-hRIPK1(1-324) (Homo sapiens (Human), UniProt Q13546); assay: RIPK1 HTRF Binding Assay; details: HTRF binding, 1 h at rt, read-out: RIPK1 (IC50)
How it was run: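 HTRF probe-displacement binding: 1 nM His-GST-TVMV-hRIPK1(1-324) (baculovirus construct), 90.6 nM probe, 0.2 nM anti-GST-Tb in 20 mM HEPES, 10 mM MgCl2, 0.015% Brij-35, 4 mM DTT, 0.05 mg/mL BSA. Incubated 1 h at rt; FRET 520/495 nm ratio, inhibition relative to DMSO-only wells.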

Sequence of His-GST-TVMV-hRIPK1(1-324) (Q13546 1-324): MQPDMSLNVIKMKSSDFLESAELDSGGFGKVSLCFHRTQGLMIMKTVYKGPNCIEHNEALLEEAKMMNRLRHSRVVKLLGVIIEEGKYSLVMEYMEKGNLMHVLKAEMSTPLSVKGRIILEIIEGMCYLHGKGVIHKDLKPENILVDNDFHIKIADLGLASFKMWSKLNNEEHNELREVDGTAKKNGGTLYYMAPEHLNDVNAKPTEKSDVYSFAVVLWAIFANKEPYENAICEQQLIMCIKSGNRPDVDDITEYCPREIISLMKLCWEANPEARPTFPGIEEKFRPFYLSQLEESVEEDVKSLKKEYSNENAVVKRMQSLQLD

SMILES | IC50 ([1]; TFA) | IC50 ([2]; TFA) | IC50 ([1]; Homo sapiens) | IC50 [2] | IC50 [1]
COc1ncc(-c2ccc3nc(NC(C)=O)cn3n2)cc1C(=O)NC(C)c1c(F)cccc1OCC1CC1 (stereo not shown) [Example 122, N-{1-[2-(cyclopropylmethoxy)-6-fluorophenyl]ethyl}-5-{2-acetamidoimidazo[1,2-b]pyridazin-6-yl}-2-methoxypyridine-3-carboxamide, TFA] | 15 nM | 5 nM | – | – | –
COc1ncc(-c2ccc3nc(NC(C)=O)c(C)n3n2)cc1C(=O)NCc1ccccc1OC(F)(F)F [Example 258, 5-{2-acetamido-3-methylimidazo[1,2-b]pyridazin-6-yl}-2-methoxy-N-{[2-(trifluoromethoxy)phenyl]methyl}pyridine-3-carboxamide, TFA] | – | – | 57 nM | 72 nM | –
CC(=O)Nc1cn2nc(-c3cnc(C)c(C(=O)NCc4ccc(F)c(F)c4OCC4CC4)c3)ccc2n1 [Example 209, N-{[2-(cyclopropylmethoxy)-3,4-difluorophenyl]methyl}-5-{2-acetamidoimidazo [1,2-b]pyridazin-6-yl}-2-methylpyridine-3-carboxamide] | – | – | 202 nM | 133 nM | –
CC(=O)Nc1cn2nc(-c3cc(C(=O)NCc4cc(C(F)(F)F)ccc4F)c(C)nc3C)ccc2n1 [Example 80, 5-{2-acetamidoimidazo[1,2-b]pyridazin-6-yl}-N-{[2-fluoro-5-(trifluoromethyl)phenyl]methyl}-2,6-dimethylpyridine-3-carboxamide] | – | – | 15 nM | 14 nM | –
COc1ncc(-c2ccc3nc(NC(C)=O)cn3n2)cc1C(=O)NC[C@H]1C[C@@H]1c1ccc(F)cc1 [Example 161, 5-{2-acetamidoimidazo[1,2-b]pyridazin-6-yl}-N-{[(1S,2S)-2-(4-fluorophenyl)cyclopropyl]methyl}-2-methoxypyridine-3-carboxamide] | – | – | 311 nM | 145 nM | –
COc1ccc(-c2ccc3nc(NC(C)=O)cn3n2)c(F)c1C(=O)NCc1cc(F)ccc1C(=O)N1CCC(F)(F)C1 [Example 376] | – | – | 9 nM | 9 nM | –
COc1ccc(-c2ccc3nc(NC(C)=O)cn3n2)c(F)c1C(=O)N[C@@H](C)c1cc(OC(F)(F)F)ccc1F [Example 375, 3-{2-acetamidoimidazo [1,2-b]pyridazin-6-yl}-2-fluoro-N-[(1S)-1[2-fluoro-5-(trifluoromethoxy)phenyl]ethyl]-6-methoxybenzamide] | – | – | 3 nM | 12 nM | –
COc1ncc(-c2ccc3nc(NC(C)=O)cn3n2)cc1C(=O)NC(C)c1cc(F)cc(F)c1OCC1CC1 (stereo not shown) [Example 130, N-{1-[2-(cyclopropylmethoxy)-3,5-difluorophenyl]ethyl}-5-{2-acetamidoimidazo[1,2-b]pyridazin-6-yl}-2-methoxypyridine-3-carboxamide] | – | – | – | 4 nM | 3 nM
CC(=O)Nc1cn2nc(-c3cnc(Cl)c(C(=O)NCc4cc(C(F)(F)F)ccc4F)c3)ccc2n1 [Example 275, 2-chloro-5-{2-acetamidoimidazo[1,2-b]pyridazin-6-yl}-N-{[2-fluoro-5-(trifluoromethyl)phenyl]methyl}pyridine-3-carboxamide] | – | – | – | 32 nM | 52 nM
COc1ncc(-c2ccc3nc(NC(=O)C(C)(C)O)cn3n2)cc1C(=O)NCc1cc(OC(F)(F)F)ccc1F [Example 36, N-{[2-fluoro-5-(trifluoromethoxy)phenyl]methyl}-5-[2-(2-hydroxy-2-methylpropanamido)imidazo[1,2-b]pyridazin-6-yl]-2-methoxypyridine-3-carboxamide] | – | – | 92 nM | 48 nM | –
CC(CCNC(=O)c1cccc(-c2ccc3nc(NC(=O)c4ccnc(F)c4)cn3n2)c1)c1ccccc1 (stereo not shown) [Example 24, 2-fluoro-N-(6-{3-[(3-phenylbutyl)carbamoyl]phenyl}imidazo[1,2-b]pyridazin-2-yl)pyridine-4-carboxamide] | – | – | 10 nM | 5 nM | –
CC(=O)Nc1cn2nc(-c3ccc(Cl)c(C(=O)NCc4cc(F)ccc4C(=O)N4CCC(F)(F)C4)c3)ccc2n1 [Example 387, 2-chloro-N-{[2-(3,3-difluoropyrrolidine-1-carbonyl)-5-fluorophenyl]methyl}-5-{2-acetamidoimidazo [1,2-b]pyridazin-6-yl}benzamide] | – | – | 5 nM | 8 nM | –
CC(=O)Nc1cn2nc(-c3cnc(C)c(C(=O)NCc4c(F)cccc4OCC(F)(F)F)c3)ccc2n1 [Example 190, 5-{2-acetamidoimidazo[1,2-b]pyridazin-6-yl}-N-{[2-fluoro-6-(2,2,2-trifluoroethoxy)phenyl]methyl}-2-methylpyridine-3-carboxamide] | – | – | 35 nM | 23 nM | –
[2H]C([2H])([2H])Oc1ncc(-c2ccc3nc(NC(C)=O)cn3n2)cc1C(=O)NCc1cc(OC)ccc1F [Example 40, 5-{2-acetamidoimidazo[1,2-b]pyridazin-6-yl}-N-[(2-fluoro-5-methoxyphenyl)methyl]-2-(D3)methoxypyridine-3-carboxamide] | – | – | 265 nM | 125 nM | –
COc1ncc(-c2ccc3nc(NC(C)=O)cn3n2)cc1C(=O)NCc1cc(F)cc(OCC2CC2)c1 [Example 140, N-{[3-(cyclopropylmethoxy)-5-fluorophenyl]methyl}-5-{2-acetamidoimidazo[1,2-b]pyridazin-6-yl}-2-methoxypyridine-3-carboxamide] | – | – | 77 nM | 17 nM | –
CNCC(=O)Nc1cn2nc(-c3cnc(C)c(C(=O)N[C@H](C)c4cc(OC(F)(F)F)ccc4F)c3)ccc2n1 [Example 340, N-[(1R)-1-[2-fluoro-5-(trifluoromethoxy)-phenyl]ethyl]-2-methyl-5-{2-[2-(methylamino)-acetamido]imidazo [1,2-b]pyridazin-6-yl}pyridine-3-carboxamide] | – | – | 258 nM | 67 nM | –
CCC(=O)Nc1cn2nc(-c3cnc(OC)c(C(=O)NCc4ccc(F)c(F)c4OCC4CC4)c3)ccc2n1 [Example 249, N-{[2-(cyclopropylmethoxy)-3,4-difluorophenyl]methyl}-2-methoxy-5-{2-propanamidoimidazo[1,2-b]pyridazin-6-yl}pyridine-3-carboxamide] | – | – | 132 nM | 29 nM | –
CC(=O)Nc1cn2nc(-c3ccc(C)c(C(=O)NCc4cc(F)ccc4C(=O)N4CCCCC4)c3)ccc2n1 [Example 408, 5-{2-acetamidoimidazo [1,2-b]pyridazin-6-yl}-N-{[5-fluoro-2-(piperidine-1-carbonyl)phenyl]methyl}-2-methylbenzamide] | – | – | 8 nM | 8 nM | –
CNCC(=O)Nc1cn2nc(-c3cc(F)c(C)c(C(=O)NCC[C@H](O)c4ccc(Cl)cc4)c3)ccc2n1 [Example 363, N-[(3S)-3-(4-chlorophenyl)-3-hydroxypropyl]-3-fluoro-2-methyl-5-{2-[2-(methylamino)acetamido]imidazo[1,2-b]pyridazin-6-yl}benzamide] | – | – | 47 nM | 65 nM | –
COc1nc(C)c(-c2ccc3nc(NC(C)=O)cn3n2)cc1C(=O)NCc1cccnc1OCC1CCC1 [Example 314, N-{[2-(cyclobutylmethoxy)pyridin-3-yl]methyl}-5-{2-acetamidoimidazo[1,2-b]pyridazin-6-yl}-2-methoxy-6-methylpyridine-3-carboxamide] | – | – | 3 nM | 5 nM | –
CC(=O)Nc1cn2nc(-c3cc(C(=O)NCc4cc(OC(F)(F)F)ccc4F)ccc3F)ccc2n1 [Example 432, 3-{2-acetamidoimidazo [1,2-b]pyridazin-6-yl}-4-fluoro-N-{[2-fluoro-5-(trifluoromethoxy)phenyl]methyl} benzamide] | – | – | 149 nM | 36 nM | –
CC(=O)Nc1cn2nc(-c3cc(C(=O)NCc4cc(F)cc(F)c4OC4CCOCC4)c(C)nc3C)ccc2n1 [Example 78, N-{[3,5-difluoro-2-(oxan-4-yloxy)phenyl]methyl}-5-{2-acetamidoimidazo[1,2-b]pyridazin-6-yl}-2,6-dimethylpyridine-3-carboxamide] | – | – | 21 nM | 16 nM | –
CC(=O)Nc1cn2nc(-c3ccc(C)c(C(=O)N[C@H](C)c4cc(OC(F)(F)F)ccc4F)c3)ccc2n1 [Example 396, (R)-5-(2-acetamidoimidazo [1,2-b]pyridazin-6-yl)-N-(1-(2-fluoro-5-(trifluoromethoxy)phenyl)ethyl)-2-methylbenzamide] | – | – | 7 nM | 1 nM | –
COc1ncc(-c2ccc3nc(NC(C)=O)cn3n2)cc1C(=O)NCc1cc(C(F)(F)F)ccc1Cl [Example 147, N-{[2-chloro-5-(trifluoromethyl)phenyl]methyl}-5-{2-acetamidoimidazo[1,2-b]pyridazin-6-yl}-2-methoxypyridine-3-carboxamide] | – | – | 37 nM | 95 nM | –
CC(=O)Nc1cn2nc(-c3cc(C(=O)NCc4cc(OCC5CC5)ccc4F)c(C)nc3C)ccc2n1 [Example 326, N-{[5-(cyclopropylmethoxy)-2-fluorophenyl]methyl}-5-{2-acetamidoimidazo[1,2-b]pyridazin-6-yl}-2,6-dimethylpyridine-3-carboxamide] | – | – | 10 nM | 6 nM | –
CC(=O)Nc1cn2nc(-c3cnc(Cl)c(C(=O)NCC[C@H](O)c4ccc(Cl)cc4)c3)ccc2n1 [Example 267, 2-chloro-N-[(3S)-3-(4-chlorophenyl)-3-hydroxypropyl]-5-{2-acetamidoimidazo[1,2-b]pyridazin-6-yl}pyridine-3-carboxamide] | – | – | 383 nM | 81 nM | –
